According to patent US10150760B2, “Compounds for use in preparing heterocyclic triazole agonists of the APJ receptor” (AMGEN INC., priority 2016, dated 2018):

Target: human APJ receptor (Homo sapiens (Human), UniProt P35414)
Assay: [35S]GTPγS binding assay on membranes from CHO cells stably expressing human APJ receptor
Assay type: biochemical
Settings: read-out: Activity hAPJ SPA EC50 IP
Outline: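 Membranes from CHO cells stably expressing human APJ incubated with ligand, 0.2 nM [35S]GTPγS and WGA SPA beads in HEPES pH 7.5 with 5 mM MgCl2, 200 mM NaCl, 3 μM GDP, 90 min at RT. Nonspecific binding defined with 100 μM GTPγS; EC50 by non-linear regression.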

human APJ receptor, sequence (P35414 whole entry): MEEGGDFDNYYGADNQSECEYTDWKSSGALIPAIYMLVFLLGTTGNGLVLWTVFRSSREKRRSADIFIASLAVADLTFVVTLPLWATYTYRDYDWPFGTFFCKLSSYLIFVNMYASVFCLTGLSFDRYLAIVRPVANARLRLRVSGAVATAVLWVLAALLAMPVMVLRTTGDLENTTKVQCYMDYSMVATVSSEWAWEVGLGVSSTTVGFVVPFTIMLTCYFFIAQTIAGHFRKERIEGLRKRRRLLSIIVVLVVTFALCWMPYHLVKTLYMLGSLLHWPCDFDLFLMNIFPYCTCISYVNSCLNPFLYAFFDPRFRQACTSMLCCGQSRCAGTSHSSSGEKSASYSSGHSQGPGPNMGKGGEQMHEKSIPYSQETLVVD

Row | SMILES | EC50 [nM]
1 | COc1ncnc(OC)c1-n1c(NS(=O)(=O)[C@@H](C)[C@H](C)c2ncc(Cl)cn2)nnc1[C@@H]1COCCO1 (single isomer, unassigned) [Example 196.0, (2S,3R)-3-(5-chloropyrimidin-2-yl)-N-(4-(4,6-dimethoxypyrimidin-5-yl)-5-((R)-1,4-dioxan-2-yl)-4H-1,2,4-triazol-3-yl)butane-2-sulfonamide or (2S,3R)-3-(5-chloropyrimidin-2-yl)-N-(4-(4,6-dimethoxypyrimidin-5-yl)-5-((S)-1,4-dioxan-2-yl)-4H-1,2,4-triazol-3-yl)butane-2-sulfonamide] | 130
2 | COc1cccc(OC)c1-n1c(NS(=O)(=O)[C@@H](C)[C@H](C)c2ncc(C)cn2)nnc1[C@H]1CN(S(C)(=O)=O)CCO1 (single isomer, unassigned) [Example 230.0] | 450
3 | COc1cccc(OC)c1-n1c(NS(=O)(=O)[C@@H](C)[C@H](C)c2ncc(C)cn2)nnc1[C@H]1CN(S(C)(=O)=O)CCO1 (single isomer, unassigned) [Example 231.0] | 880
4 | COc1ncnc(OC)c1-n1c(NS(=O)(=O)[C@@H](C)[C@H](OC)c2ncc(C)cn2)nnc1[C@@H]1Cc2ccccc2O1 (single isomer, unassigned) [Example 232.0, (1R,2S)-N-(5-((S)-2,3-dihydrobenzofuran-2-yl)-4-(4,6-dimethoxypyrimidin-5-yl)-4H-1,2,4-triazol-3-yl)-1-methoxy-1-(5-methylpyrimidin-2-yl)propane-2-sulfonamide or (1R,2S)-N-(5-((R)-2,3-dihydrobenzofuran-2-yl)-4-(4,6-dimethoxypyrimidin-5-yl)-4H-1,2,4-triazol-3-yl)-1-methoxy-1-(5-methylpyrimidin-2-yl)propane-2-sulfonamide] | 220
5 | C[C@H](c1ncc(Cl)cn1)[C@H](C)S(=O)(=O)Nc1nnc([C@@H]2COCCO2)n1C1CCOCC1 (single isomer, unassigned) [Example 245.0, (2S,3R)-3-(5-chloro-2-pyrimidinyl)-N-(5-((2R)-1,4-dioxan-2-yl)-4-(tetrahydro-2H-pyran-4-yl)-4H-1,2,4-triazol-3-yl)-2-butanesulfonamide or (2S,3R)-3-(5-chloro-2-pyrimidinyl)-N-(5-((2S)-1,4-dioxan-2-yl)-4-(tetrahydro-2H-pyran-4-yl)-4H-1,2,4-triazol-3-yl)-2-butanesulfonamide] | 620
6 | C[C@H](c1ncc(Cl)cn1)[C@H](C)S(=O)(=O)Nc1nnc([C@@H]2COCCO2)n1C1CCOCC1 (single isomer, unassigned) [Example 246.0, (2S,3R)-3-(5-chloro-2-pyrimidinyl)-N-(5-((2R)-1,4-dioxan-2-yl)-4-(tetrahydro-2H-pyran-4-yl)-4H-1,2,4-triazol-3-yl)-2-butanesulfonamide or (2S,3R)-3-(5-chloro-2-pyrimidinyl)-N-(5-((2S)-1,4-dioxan-2-yl)-4-(tetrahydro-2H-pyran-4-yl)-4H-1,2,4-triazol-3-yl)-2-butanesulfonamide] | > 4200
7 | CO[C@H](c1ncc(Cl)cn1)[C@H](C)S(=O)(=O)Nc1nnc([C@@H]2COCCO2)n1C1CCOCC1 (single isomer, unassigned) [Example 247.0, (1R,2S)-1-(5-chloro-2-pyrimidinyl)-N-(5-((2R)-1,4-dioxan-2-yl)-4-(tetrahydro-2H-pyran-4-yl)-4H-1,2,4-triazol-3-yl)-1-methoxy-2-propanesulfonamide or (1R,2S)-1-(5-chloro-2-pyrimidinyl)-N-(5-((2S)-1,4-dioxan-2-yl)-4-(tetrahydro-2H-pyran-4-yl)-4H-1,2,4-triazol-3-yl)-1-methoxy-2-propanesulfonamide] | 240
8 | CO[C@H](c1ncc(Cl)cn1)[C@H](C)S(=O)(=O)Nc1nnc([C@@H]2COCCO2)n1C1CCOCC1 (single isomer, unassigned) [Example 248.0, (1R,2S)-1-(5-chloro-2-pyrimidinyl)-N-(5-((2R)-1,4-dioxan-2-yl)-4-(tetrahydro-2H-pyran-4-yl)-4H-1,2,4-triazol-3-yl)-1-methoxy-2-propanesulfonamide or (1R,2S)-1-(5-chloro-2-pyrimidinyl)-N-(5-((2S)-1,4-dioxan-2-yl)-4-(tetrahydro-2H-pyran-4-yl)-4H-1,2,4-triazol-3-yl)-1-methoxy-2-propanesulfonamide] | 0.58
9 | COCC(COC)n1c(NS(=O)(=O)[C@@H](C)[C@H](OC)c2ncc(Cl)cn2)nnc1[C@@H]1COCCO1 (single isomer, unassigned) [Example 250.0, (1R,2S)-1-(5-chloro-2-pyrimidinyl)-N-(4-(1,3-dimethoxy-2-propanyl)-5-((2R)-1,4-dioxan-2-yl)-4H-1,2,4-triazol-3-yl)-1-methoxy-2-propanesulfonamide or (1R,2S)-1-(5-chloro-2-pyrimidinyl)-N-(4-(1,3-dimethoxy-2-propanyl)-5-((2S)-1,4-dioxan-2-yl)-4H-1,2,4-triazol-3-yl)-1-methoxy-2-propanesulfonamide] | 48
10 | COCC(COC)n1c(NS(=O)(=O)[C@@H](C)[C@H](OC)c2ncc(Cl)cn2)nnc1[C@@H]1COCCO1 (single isomer, unassigned) [Example 251.0, (1R,2S)-1-(5-chloro-2-pyrimidinyl)-N-(4-(1,3-dimethoxy-2-propanyl)-5-((2R)-1,4-dioxan-2-yl)-4H-1,2,4-triazol-3-yl)-1-methoxy-2-propanesulfonamide or (1R,2S)-1-(5-chloro-2-pyrimidinyl)-N-(4-(1,3-dimethoxy-2-propanyl)-5-((2S)-1,4-dioxan-2-yl)-4H-1,2,4-triazol-3-yl)-1-methoxy-2-propanesulfonamide] | 750
11 | COc1cccc(OC)c1-n1c(NS(=O)(=O)[C@H](C)[C@H](OC(C)C)c2cn3ccccc3n2)nnc1[C@H]1COCCO1 (single isomer, unassigned) [Example 266.0, (1R,2R)—N-(4-(2,6-dimethoxyphenyl)-5-((S)-1,4-dioxan-2-yl)-4H-1,2,4-triazol-3-yl)-1-(imidazo[1,2-a]pyridin-2-yl)-1-isopropoxypropane-2-sulfonamide or (1S,2S)—N-(4-(2,6-dimethoxyphenyl)-5-((S)-1,4-dioxan-2-yl)-4H-1,2,4-triazol-3-yl)-1-(imidazo[1,2-a]pyridin-2-yl)-1-isopropoxypropane-2-sulfonamide] | 150
12 | COc1cccc(OC)c1-n1c(NS(=O)(=O)[C@@H](C)[C@H](C)c2ccc(Cl)cn2)nnc1[C@@H]1COCCO1 (single isomer, unassigned) [Example 267.0, (2S,3R)-3-(5-chloropyridin-2-yl)-N-(4-(2,6-dimethoxyphenyl)-5-((R)-1,4-dioxan-2-yl)-4H-1,2,4-triazol-3-yl)butane-2-sulfonamide or (2S,3R)-3-(5-chloropyridin-2-yl)-N-(4-(2,6-dimethoxyphenyl)-5-((S)-1,4-dioxan-2-yl)-4H-1,2,4-triazol-3-yl)butane-2-sulfonamide] | 2.1
13 | COc1cccc(OC)c1-n1c(NS(=O)(=O)[C@@H](C)[C@H](C)c2ccc(Cl)cn2)nnc1[C@@H]1COCCO1 (single isomer, unassigned) [Example 268.0, (2S,3R)-3-(5-chloropyridin-2-yl)-N-(4-(2,6-dimethoxyphenyl)-5-((R)-1,4-dioxan-2-yl)-4H-1,2,4-triazol-3-yl)butane-2-sulfonamide or (2S,3R)-3-(5-chloropyridin-2-yl)-N-(4-(2,6-dimethoxyphenyl)-5-((S)-1,4-dioxan-2-yl)-4H-1,2,4-triazol-3-yl)butane-2-sulfonamide] | 1.9
14 | COc1cccc(OC)c1-n1c(NS(=O)(=O)[C@@H](C)[C@H](C)c2ncc(C)cn2)nnc1[C@@H]1CCCN(C)C1 (single isomer, unassigned) [Example 269.0, (2S,3R)-N-(4-(2,6-dimethoxyphenyl)-5-((R)-1-methylpiperidin-3-yl)-4H-1,2,4-triazol-3-yl)-3-(5-methylpyrimidin-2-yl)butane-2-sulfonamide or (2S,3R)-N-(4-(2,6-dimethoxyphenyl)-5-((S)-1-methylpiperidin-3-yl)-4H-1,2,4-triazol-3-yl)-3-(5-methylpyrimidin-2-yl)butane-2-sulfonamide] | 420
15 | COc1cccc(OC)c1-n1c(NS(=O)(=O)[C@@H](C)[C@H](C)c2ncc(C)cn2)nnc1[C@@H]1CCCN(C)C1 (single isomer, unassigned) [Example 270.0, (2S,3R)-N-(4-(2,6-dimethoxyphenyl)-5-((R)-1-methylpiperidin-3-yl)-4H-1,2,4-triazol-3-yl)-3-(5-methylpyrimidin-2-yl)butane-2-sulfonamide or (2S,3R)-N-(4-(2,6-dimethoxyphenyl)-5-((S)-1-methylpiperidin-3-yl)-4H-1,2,4-triazol-3-yl)-3-(5-methylpyrimidin-2-yl)butane-2-sulfonamide] | 410
16 | CO[C@H](c1ncc(Cl)cn1)[C@H](C)S(=O)(=O)Nc1nnc([C@@H]2COCCO2)n1C1(C)CC1 (single isomer, unassigned) [Example 271.0, (1R,2S)-N-(5-((R)-1,4-dioxan-2-yl)-4-(1-methylcyclopropyl)-4H-1,2,4-triazol-3-yl)-1-(5-chloropyrimidin-2-yl)-1-methoxypropane-2-sulfonamide or (1R,2S)-N-(5-((S)-1,4-dioxan-2-yl)-4-(1-methylcyclopropyl)-4H-1,2,4-triazol-3-yl)-1-(5-chloropyrimidin-2-yl)-1-methoxypropane-2-sulfonamide] | 140
17 | CO[C@H](c1ncc(Cl)cn1)[C@H](C)S(=O)(=O)Nc1nnc([C@@H]2COCCO2)n1C1(C)CC1 (single isomer, unassigned) [Example 272.0, (1R,2S)-N-(5-((R)-1,4-dioxan-2-yl)-4-(1-methylcyclopropyl)-4H-1,2,4-triazol-3-yl)-1-(5-chloropyrimidin-2-yl)-1-methoxypropane-2-sulfonamide or (1R,2S)-N-(5-((S)-1,4-dioxan-2-yl)-4-(1-methylcyclopropyl)-4H-1,2,4-triazol-3-yl)-1-(5-chloropyrimidin-2-yl)-1-methoxypropane-2-sulfonamide] | 1010
